In patent publication US9055743B2, “Alpha, beta-unsaturated imines” (BAYER INTELLECTUAL PROPERTY GMBH, priority 2010, dated 2015):

Experiments:
Assay type in all cases: in vivo
[1] = test system: cat fleas (Ctenocephalides felis, fully sensitive laboratory strain); assay: Contact test against fleas in-vitro (CTECFE contact); conditions: 500 g/ha, after 48 h
Description: Contact Test Against Fleas In-Vitro (CTECFE Contact)
An amount of 0.9 mg of active compound is weighed out, and 1 ml of acetone is added.
Of this acetone solution, either […] are transferred directly into roll-necked test tubes or an aliquot is diluted with 4 parts of acetone 1:5. For its part, 250 μl of this dilution are pipetted into roll-necked test tubes, or the dilution is diluted further, etc., until the desired number of dilution steps is reached.
The roll-necked test tubes containing the solution of the active compound in acetone are immediately coated in a fume cupboard by 2 h of swing rotation at 30 rpm. After evaporation of the solvent, the active compound contained in the acetone gives, at the highest concentration tested, an active compound content of 500 g/ha (or 500 μg/dm^2) on the surface of the test tube.
10-20 Adult cat fleas (Ctenocephalides felis, fully sensitive laboratory strain) anesthetized with CO2 are transferred into the test tubes prepared in this manner, and the test tubes are closed with a plastic roll-necked lid provided with fine holes.
The test tubes are stored vertically at room temperature and humidity for 24 or 48 h. After 24 and 48 h, the activity of the active compound applied is determined by comparison with an acetone-treated control. Here, an observed normal activity for all fleas corresponds to 0% activity, a strongly restricted or uncoordinated (knock-down) movement or death of all fleas corresponds to 100% activity.

[2] = test system: caterpillars of the army worm (Spodoptera frugiperda); assay: Spodoptera frugiperda test (SPODFR spray treatment); conditions: 500 g/ha, spray, after 7 days
Description: Spodoptera frugiperda Test (SPODFR Spray Treatment) Solvents: 78.0 parts by weight of acetone • • 1.5 parts by weight of dimethylformamide Emulsifier: 0.5 part by weight of alkylaryl polyglycol ether
(§1) To produce a suitable preparation of active compound, 1 part by weight of active compound is mixed with the stated amounts of solvents and emulsifier, and the concentrate is diluted with emulsifier-containing water to the desired concentration.
Discs of maize leaves (Zea mays) are sprayed with an active compound preparation of the desired concentration and, after drying, populated with caterpillars of the army worm (Spodoptera frugiperda) besetzt.
After 7 days, the activity in % is determined. 100% means that all caterpillars have been killed; 0% means that none of the caterpillars have been killed.

[3] = test system: larvae of the mustard beetle (Phaedon cochleariae); assay: Phaedon test (PHAECO spray treatment); conditions: 500 g/ha, spray, after 7 days
Description: Phaedon Test ([…] Spray Treatment) Solvents: 78.0 parts by weight of acetone • • 1.5 parts by weight of dimethylformamide Emulsifier: 0.5 part by weight of alkylaryl polyglycol ether To produce a suitable preparation of active compound, 1 part by weight of active compound is mixed with the stated amounts of solvents and emulsifiers, and the concentrate is diluted with emulsifier-containing water to the desired concentration. Discs of Chinese cabbage leaves (Brassica pekinensis) are sprayed with an active compound preparation of the desired concentration and, after drying, populated with larvae of the mustard beetle (Phaedon cochleariae).

[4] = test system: green peach aphid (Myzus persicae); assay: Myzus test (MYZUPE spray treatment); conditions: 500 g/ha, spray, after 6 days
Description: Myzus Test (MYZUPE Spray Treatment) Solvents: 78 parts by weight of acetone • • 1.5 parts by weight of dimethylformamide Emulsifier: 0.5 part by weight of alkylaryl polyglycol ether
as §1
Discs of Chinese cabbage leaves (Brassica pekinensis) which are infested by all stages of the green peach aphid (Myzus persicae) are sprayed with an active compound preparation of the desired concentration.
After 6 days, the activity in % is determined. 100% means that all aphids have been killed; 0% means that none of the aphids have been killed.

[5] = test system: greenhouse red spider mite (Tetranychus urticae); assay: Tetranychus test; OP-resistant (TETRUR spray treatment); conditions: 500 g/ha, spray, after 6 days
Description: Tetranychus Test; OP-Resistant (TETRUR Spray Treatment) Solvents: 78.0 parts by weight of acetone • • 1.5 parts by weight of dimethylformamide Emulsifier: 0.5 part by weight of alkylaryl polyglycol ether
as §1
Discs of bean leaves (Phaseolus vulgaris) infested by all stages of the greenhouse red spider mite (Tetranychus urticae) are sprayed with an active compound preparation of the desired concentration.
After 6 days, the activity in % is determined. 100% means that all spider mites have been killed; 0% means that none of the spider mites have been killed.

[6] = test system: Aedes aegypti; assay: Aedes test (AEDSAE surface treatment); conditions: for knock-down activity: 100 mg/m^2, two hours after contact, exposition 30 minutes
Description: Aedes Test (AEDSAE Surface Treatment)
To produce a suitable preparation of active compound, the active compound is dissolved in acetone (2 mg/ml). The active compound preparation is pipetted onto a glazed tile and, after drying, adult mosquitoes of the species Aedes aegypti are placed onto the treated tile. The exposition time is 30 minutes.
(§2) Two hours after contact to the treated surface, the knock-down proportion of the test animals in % is determined.
24 hours after contact to the treated surface, the mortality in % is determined Here, 100% means that all mosquitoes have been killed; 0% means that none of the mosquitoes has been killed.

[7] = test system: Anopheles gambiae (homocygus kdr); assay: Anopheles test (ANPHGB surface treatment); conditions: 100 mg/m^2, two hours after contact, exposition 30 minutes
Description: Anopheles Test (ANPHGB Surface Treatment) Solvent: Acetone
To produce a suitable preparation of active compound, the active compound is dissolved in acetone (2 mg/ml). The active compound preparation is pipetted onto a glazed tile and, after drying, adult mosquitoes of the species Anopheles gambiae (homocygus kdr) are placed onto the treated tile. The exposition time is 30 minutes.
as §2
24 hours after contact to the treated surface, the mortality in % is determined. Here, 100% means that all mosquitoes have been killed; 0% means that none of the mosquitoes has been killed.

SMILES	activity against cat fleas [1] [%]	activity (caterpillars killed) [2] [%]	activity (beetle larvae killed) [3] [%]	activity (aphids killed) [4] [%]	activity (spider mites killed) [5] [%]	knock-down activity [6] [%]	knock-down activity [7] [%]	pest or weed control at 500 g/ha ([5]; Tetranychus urticae, 144 h, read-out: activity (spider mites killed)) [%]	mortality at 100 mg/m2 ([6]; Aedes aegypti, read-out: activity (mortality in %)) [%]	pest or weed control at 500 g/ha ([2]; Spodoptera frugiperda, 168 h, read-out: activity (caterpillars killed)) [%]
Cc1ccc(N=C2C(=CSc3ccc(F)cc3)COc3ccc(F)cc32)cc1 [Example 1-23]	100	100	100	–	–	–	–	–	–	–
CCOC1=CC(=CSc2ccc(F)cc2)C(=Nc2ccc(C)cc2)CC1 (mixture of isomers) [Example 1-96]	–	–	–	90	90	80	–	–	–	–
Cc1ccc(N=C2C(=CSc3cccc(F)c3)C3CCC2C3)cc1 (stereo not drawn) [Example 1-102]	–	–	–	–	–	100	100	–	–	–
c1ccc(N=C2c3ccccc3CCC2C(Sc2ccccc2)Sc2ccccc2)cc1 (stereo not drawn) [Example 2-2]	–	–	–	–	–	100	100	–	–	–
Cc1cccc(N=C2C(=CSc3ccc(F)cc3)CCc3ccccc32)c1 [Example 1-88]	–	100	100	100	100	85	100	–	–	–
Cc1ccc(N=C2C=CC(C)(C)CC2=CSc2ccc(F)cc2)cc1 (mixture of isomers) [Example 1-44]	–	83	–	–	90	90	100	–	–	–
Cc1ccc(N=C2C(=CSc3ccccc3F)C3CCC2C3)cc1 (stereo not drawn) [Example 1-103]	–	–	–	–	–	100	100	–	–	–
C(Sc1ccccc1)=C1CCc2ccccc2C1=Nc1ccccc1 [Example 1-8]	100	100	100	–	100	–	85	–	–	–
CCOC1=CC(=Nc2ccc(C)cc2)C(=CSc2ccc(F)cc2F)CC1 [Example 1-98, N-(6-{[(2,4-Difluorophenyl)sulphanyl]methylene}-3-ethoxycyclohex-2-en-1-ylidene)-4-methylaniline]	–	–	–	–	–	–	–	100	80	83
Cc1ccc(N=C2C(=CSc3ccc(F)cc3)CCc3ccccc32)cc1C [Example 1-41]	–	100	100	90	80	95	100	–	–	–
COc1cccc2c1CCC(=CSc1ccc(F)cc1)C2=Nc1ccc(C)cc1 [Example 1-31]	100	100	–	–	100	–	–	–	–	–
Cc1ccc(N=C2C(=CSc3ccc(F)cc3)CCc3ccc(F)cc32)cc1 [Example 1-15]	100	100	100	100	100	–	–	–	–	–
Cc1ccc(N=C2C(=CSc3ccc(F)cc3)CC(C)c3ccccc32)cc1 (stereo not drawn) [Example 1-14]	100	100	100	100	100	–	95	–	–	–
COc1ccc(N=C2C(=CSc3ccccc3)C(C)c3ccccc32)cc1 (mixture of isomers) [Example 1-22]	100	100	–	–	90	–	–	–	–	–
Cc1ccc(N=C2C(=CSc3ccc(F)cc3)CCc3nc(Cl)ccc32)cc1 [Example 1-54]	100	100	100	80	80	–	–	–	–	–
COc1ccc2c(c1)C(=Nc1ccc(C)cc1)C(=CSc1ccc(F)cc1)CC2 [Example 1-32]	100	100	–	–	100	–	–	–	–	–
Cc1ccc(N=C2C(=CSc3ccc(F)cc3)C(C)c3cc(C)ccc32)cc1 (mixture of isomers) [Example 1-51]	–	100	100	100	–	85	100	–	–	–
Cc1ccc(N=C2c3ccccc3OCC2C(Sc2ccc(F)cc2)Sc2ccc(F)cc2)cc1 (stereo not drawn) [Example 2-11]	100	100	100	100	100	–	–	–	–	–
Cc1ccc(N=C2C(=CSc3ccc(F)cc3)COc3cccc(C)c32)cc1 [Example 1-86]	–	–	–	–	–	95	100	–	–	–
Cc1ccc(N=C2C(=CSc3ccc(F)cc3)CSc3cc(C)ccc32)cc1 [Example 1-76]	–	–	–	–	–	80	100	–	–	–
Cc1ccc(N=C2C(=CSc3ccc(F)cc3)CCc3cc(Cl)ccc32)cc1 [Example 1-47]	100	100	100	100	100	–	85	–	–	–
